What all share (experiment): biochemical
What all share (format): binding

The target in experiment [1] is cellular kinases of SH-SY5Y cells (Homo sapiens, UniProt Q5S007). The settings on record: 2µM; SH-SY5Y cells; Labeling Site Lys2; DLKPHNVLLFTLYPNAAIIAK; read-out: KiNativ in-cell binding, % Inhibition, LRRK2. From the text: (§1) As KINOMEscan is an in vitro assay, and as different cell types have variable kinase expression profiles we sought to determine the kinase binding profile in our SH-SY5Y TFEB-relocalization cell model. […] Bound kinases were pulled down and analyzed by mass spectrometry to determine the in situ kinase binding profile for each compound.

For experiment [2], the target named is cellular kinases of SH-SY5Y cells (Homo sapiens, UniProt P42338). As to conditions: 2µM; SH-SY5Y cells; Labeling Site ATP; VFGEDSVGVIFKNGDDLRQDMLTLQMLR; read-out: KiNativ in-cell binding, % Inhibition, PIK3CB.
Sequence of cellular kinases of SH-SY5Y cells (Homo sapiens, UniProt P42338) (P42338 whole entry): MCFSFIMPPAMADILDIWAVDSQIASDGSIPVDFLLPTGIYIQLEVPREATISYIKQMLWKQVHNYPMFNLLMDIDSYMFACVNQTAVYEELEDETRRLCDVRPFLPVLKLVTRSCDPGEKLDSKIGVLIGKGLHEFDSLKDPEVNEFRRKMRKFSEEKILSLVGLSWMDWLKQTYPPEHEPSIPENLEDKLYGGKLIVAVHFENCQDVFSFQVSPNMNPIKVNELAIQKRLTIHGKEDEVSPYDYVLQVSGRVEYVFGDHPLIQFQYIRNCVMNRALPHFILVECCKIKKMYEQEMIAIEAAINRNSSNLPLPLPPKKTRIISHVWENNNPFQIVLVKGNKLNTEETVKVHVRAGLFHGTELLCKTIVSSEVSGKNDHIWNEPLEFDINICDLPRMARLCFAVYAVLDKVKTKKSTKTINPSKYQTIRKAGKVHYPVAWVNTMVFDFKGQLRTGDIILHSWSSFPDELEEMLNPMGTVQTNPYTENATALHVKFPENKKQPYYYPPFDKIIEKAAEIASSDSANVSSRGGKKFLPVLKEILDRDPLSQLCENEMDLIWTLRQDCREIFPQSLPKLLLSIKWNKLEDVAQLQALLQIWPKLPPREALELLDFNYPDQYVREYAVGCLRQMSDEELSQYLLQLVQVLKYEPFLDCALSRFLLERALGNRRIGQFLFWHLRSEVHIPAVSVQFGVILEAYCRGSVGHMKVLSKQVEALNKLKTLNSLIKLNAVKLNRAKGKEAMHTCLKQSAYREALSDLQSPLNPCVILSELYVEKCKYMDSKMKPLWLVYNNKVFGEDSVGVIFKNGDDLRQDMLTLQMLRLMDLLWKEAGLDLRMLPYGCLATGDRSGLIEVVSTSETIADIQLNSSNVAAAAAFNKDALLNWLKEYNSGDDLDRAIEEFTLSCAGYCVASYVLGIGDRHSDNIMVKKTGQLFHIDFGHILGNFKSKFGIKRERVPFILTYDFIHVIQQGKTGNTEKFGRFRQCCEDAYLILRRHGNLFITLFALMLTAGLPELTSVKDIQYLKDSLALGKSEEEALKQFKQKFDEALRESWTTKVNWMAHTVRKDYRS
From the text: as §1

The target in experiment [3] is cellular kinases of SH-SY5Y cells (Homo sapiens, UniProt P27361). The settings on record: 2µM; SH-SY5Y cells; Labeling Site Lys2; DLKPSNLLINTTCDLK; read-out: KiNativ in-cell binding, % Inhibition, MAPK3/Erk1.
From the text: as §1

For experiment [4], the target named is cellular kinases of SH-SY5Y cells (Homo sapiens, UniProt P10398). The settings on record: 2µM; SH-SY5Y cells; Labeling Site Lys2; DLKSNNIFLHEGLTVK; read-out: KiNativ in-cell binding, % Inhibition, ARAF.
Sequence of cellular kinases of SH-SY5Y cells (Homo sapiens, UniProt P10398) (P10398 whole entry): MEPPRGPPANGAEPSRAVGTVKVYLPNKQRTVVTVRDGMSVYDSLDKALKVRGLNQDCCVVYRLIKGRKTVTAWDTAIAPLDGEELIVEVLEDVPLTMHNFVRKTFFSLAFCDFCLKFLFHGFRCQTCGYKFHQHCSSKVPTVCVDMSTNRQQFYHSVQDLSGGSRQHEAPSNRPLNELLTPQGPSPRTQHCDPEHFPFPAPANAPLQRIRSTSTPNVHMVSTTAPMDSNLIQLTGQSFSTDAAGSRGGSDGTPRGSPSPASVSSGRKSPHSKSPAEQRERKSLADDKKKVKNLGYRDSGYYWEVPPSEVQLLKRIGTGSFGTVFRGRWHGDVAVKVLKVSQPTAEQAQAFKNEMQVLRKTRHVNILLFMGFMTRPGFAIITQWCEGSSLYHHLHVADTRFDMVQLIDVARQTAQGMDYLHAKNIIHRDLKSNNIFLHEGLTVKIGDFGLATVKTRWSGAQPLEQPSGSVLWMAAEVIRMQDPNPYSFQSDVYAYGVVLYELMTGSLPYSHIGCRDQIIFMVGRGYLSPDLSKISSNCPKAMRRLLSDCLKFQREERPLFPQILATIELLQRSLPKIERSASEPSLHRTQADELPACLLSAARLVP
From the text: as §1

In experiment [5] the target is cellular kinases of SH-SY5Y cells (Homo sapiens, UniProt O00418). As to conditions: 2µM; SH-SY5Y cells; Labeling Site ATP; YIKYNSNSGFVR; read-out: KiNativ in-cell binding, % Inhibition, eEF2K.
From the text: as §1

The target of experiment [6] is T1, cellular kinases of SH-SY5Y cells (Homo sapiens, UniProt Q15208).
T1 construct: endogenous in cells; host or cells: SH-SY5Y
T1 sequence (Q15208 whole entry): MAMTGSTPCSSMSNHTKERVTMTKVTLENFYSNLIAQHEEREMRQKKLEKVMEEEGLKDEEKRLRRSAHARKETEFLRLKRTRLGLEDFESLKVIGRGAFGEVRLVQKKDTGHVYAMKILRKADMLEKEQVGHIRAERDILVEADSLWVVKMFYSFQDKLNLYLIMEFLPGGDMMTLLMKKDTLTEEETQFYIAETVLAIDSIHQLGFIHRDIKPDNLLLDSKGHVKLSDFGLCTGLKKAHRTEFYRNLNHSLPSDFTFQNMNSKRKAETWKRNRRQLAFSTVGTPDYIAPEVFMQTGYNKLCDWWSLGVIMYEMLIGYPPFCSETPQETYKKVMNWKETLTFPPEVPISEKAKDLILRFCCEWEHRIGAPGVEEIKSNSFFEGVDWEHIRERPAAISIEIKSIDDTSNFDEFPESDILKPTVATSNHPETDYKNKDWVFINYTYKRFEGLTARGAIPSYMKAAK
The settings on record: 2µM, SH-SY5Y cells, read-out: KiNativ in-cell binding, % Inhibition, STK38/NDR1.
From the text: as §1

For experiment [7], the target named is T2, cellular kinases of SH-SY5Y cells (Homo sapiens, UniProt P52564).
T2 sequence (P52564 1-334): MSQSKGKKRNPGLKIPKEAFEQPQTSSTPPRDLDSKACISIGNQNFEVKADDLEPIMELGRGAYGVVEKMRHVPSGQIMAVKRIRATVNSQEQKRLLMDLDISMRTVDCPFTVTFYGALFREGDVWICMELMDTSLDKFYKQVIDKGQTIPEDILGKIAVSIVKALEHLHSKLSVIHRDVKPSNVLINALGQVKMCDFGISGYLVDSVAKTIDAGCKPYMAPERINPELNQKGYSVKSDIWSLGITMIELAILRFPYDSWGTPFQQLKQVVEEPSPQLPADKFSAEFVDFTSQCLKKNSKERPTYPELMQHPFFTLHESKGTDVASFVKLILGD
As to conditions: 2µM, SH-SY5Y cells; for inhibition at 2 µM: read-out: KiNativ in-cell binding, % Inhibition, MAP2K6.
From the text: as §1

Experiment [8] concerns the target cellular kinases of SH-SY5Y cells (Homo sapiens, UniProt Q9HCP0). The settings on record: 2µM; SH-SY5Y cells; Labeling Site Lys2; DVKPENFLIGR; read-out: KiNativ in-cell binding, % Inhibition, CK1g1.
From the text: as §1

Experiment [9] has as its target T3, cellular kinases of SH-SY5Y cells (Homo sapiens, UniProt Q9Y6E0).
T3 construct: endogenous in cells; host or cells: SH-SY5Y
As to conditions: 2µM; SH-SY5Y cells; Labeling Site Lys2; DIKAANVLLSEHGEVK; read-out: KiNativ in-cell binding, % Inhibition, STK24/MST3.
From the text: as §1

Experiment [10] deals with T4, cellular kinases of SH-SY5Y cells (Homo sapiens, UniProt O14920).
T4 construct: endogenous in cells; host or cells: SH-SY5Y
The settings on record: 2µM; SH-SY5Y cells; Labeling Site Lys2; DLKPENIVLQQGEQR; read-out: KiNativ in-cell binding, % Inhibition, IKBKB/IKKb.
From the text: as §1

Experiment [11] deals with cellular kinases of SH-SY5Y cells (Homo sapiens, UniProt P29317). The settings on record: 2µM; SH-SY5Y cells; Labeling Site Activation Loop; VLEDDPEATYTTSGGKIPIR; read-out: KiNativ in-cell binding, % Inhibition, EphA2.
From the text: as §1

Experiment [12] deals with cellular kinases of SH-SY5Y cells (Homo sapiens, UniProt Q7KZI7). As to conditions: 2µM; SH-SY5Y cells; Labeling Site Lys1; EVAVKIIDKTQLNSSSLQK; read-out: KiNativ in-cell binding, % Inhibition, MARK2.
Sequence of cellular kinases of SH-SY5Y cells (Homo sapiens, UniProt Q7KZI7) (Q7KZI7 whole entry): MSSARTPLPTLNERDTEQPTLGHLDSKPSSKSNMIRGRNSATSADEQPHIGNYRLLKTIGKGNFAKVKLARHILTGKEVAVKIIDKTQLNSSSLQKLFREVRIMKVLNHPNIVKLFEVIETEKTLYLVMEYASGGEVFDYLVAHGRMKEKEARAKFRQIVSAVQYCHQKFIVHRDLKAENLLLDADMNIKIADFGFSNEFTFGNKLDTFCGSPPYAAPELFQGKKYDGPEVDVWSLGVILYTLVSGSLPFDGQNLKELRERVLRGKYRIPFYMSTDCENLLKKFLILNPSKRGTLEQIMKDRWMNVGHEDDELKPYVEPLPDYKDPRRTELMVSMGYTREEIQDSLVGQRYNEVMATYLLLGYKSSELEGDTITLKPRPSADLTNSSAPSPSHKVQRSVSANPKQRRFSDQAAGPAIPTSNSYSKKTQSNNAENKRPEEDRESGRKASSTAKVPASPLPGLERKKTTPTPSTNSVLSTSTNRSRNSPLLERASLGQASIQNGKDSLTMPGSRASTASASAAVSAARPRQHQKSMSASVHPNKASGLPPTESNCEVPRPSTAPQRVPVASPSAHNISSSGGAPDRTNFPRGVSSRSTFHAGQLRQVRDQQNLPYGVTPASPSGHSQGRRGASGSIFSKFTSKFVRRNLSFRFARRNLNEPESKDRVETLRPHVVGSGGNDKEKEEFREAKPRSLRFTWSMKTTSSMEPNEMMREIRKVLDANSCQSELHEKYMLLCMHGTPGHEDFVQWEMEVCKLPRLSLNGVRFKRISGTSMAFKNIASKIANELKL
From the text: as §1

The target in experiment [13] is cellular kinases of SH-SY5Y cells (Homo sapiens, UniProt Q96L34). As to conditions: 2µM, SH-SY5Y cells, read-out: KiNativ in-cell binding, % Inhibition, MARK4.
Sequence of cellular kinases of SH-SY5Y cells (Homo sapiens, UniProt Q96L34) (Q96L34 whole entry): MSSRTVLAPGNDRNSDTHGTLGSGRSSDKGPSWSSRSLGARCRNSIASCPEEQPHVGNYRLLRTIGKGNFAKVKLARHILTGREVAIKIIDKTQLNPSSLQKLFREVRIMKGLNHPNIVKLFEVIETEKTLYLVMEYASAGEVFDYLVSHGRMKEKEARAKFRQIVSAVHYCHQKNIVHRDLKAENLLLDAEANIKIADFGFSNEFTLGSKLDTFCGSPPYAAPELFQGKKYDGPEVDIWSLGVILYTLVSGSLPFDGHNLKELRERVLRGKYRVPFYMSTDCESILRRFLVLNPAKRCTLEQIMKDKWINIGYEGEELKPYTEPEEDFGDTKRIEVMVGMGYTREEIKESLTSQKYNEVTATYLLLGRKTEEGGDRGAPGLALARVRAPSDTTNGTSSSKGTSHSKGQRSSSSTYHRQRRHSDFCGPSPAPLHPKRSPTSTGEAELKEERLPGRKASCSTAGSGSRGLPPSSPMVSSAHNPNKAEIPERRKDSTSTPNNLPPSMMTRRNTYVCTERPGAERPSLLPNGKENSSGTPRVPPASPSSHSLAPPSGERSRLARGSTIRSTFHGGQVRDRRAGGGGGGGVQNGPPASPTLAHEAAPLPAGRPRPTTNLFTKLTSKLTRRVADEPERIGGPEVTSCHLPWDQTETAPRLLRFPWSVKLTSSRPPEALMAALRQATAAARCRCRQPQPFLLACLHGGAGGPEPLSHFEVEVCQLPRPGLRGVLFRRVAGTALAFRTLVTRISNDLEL
From the text: as §1

Experiment [14] deals with T5, cellular kinases of SH-SY5Y cells (Homo sapiens, UniProt Q9BYT3).
T5 construct: endogenous in cells; host or cells: SH-SY5Y
T5 sequence (Q9BYT3 whole entry): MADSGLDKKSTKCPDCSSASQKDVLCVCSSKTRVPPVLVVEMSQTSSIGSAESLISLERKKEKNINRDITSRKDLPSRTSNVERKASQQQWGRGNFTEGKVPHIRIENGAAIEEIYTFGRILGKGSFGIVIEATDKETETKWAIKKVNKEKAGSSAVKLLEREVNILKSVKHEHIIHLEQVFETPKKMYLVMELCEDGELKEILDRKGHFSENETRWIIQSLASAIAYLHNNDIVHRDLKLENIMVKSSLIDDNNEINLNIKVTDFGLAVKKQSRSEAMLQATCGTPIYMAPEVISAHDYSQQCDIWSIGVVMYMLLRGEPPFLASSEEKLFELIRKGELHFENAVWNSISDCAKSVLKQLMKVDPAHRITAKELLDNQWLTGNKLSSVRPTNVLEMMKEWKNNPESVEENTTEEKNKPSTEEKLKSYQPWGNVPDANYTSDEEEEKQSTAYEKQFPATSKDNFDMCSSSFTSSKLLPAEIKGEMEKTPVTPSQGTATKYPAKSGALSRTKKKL
As to conditions: 2µM; SH-SY5Y cells; Labeling Site Lys2; DLKLENIMVK; read-out: KiNativ in-cell binding, % Inhibition, STK33.
From the text: as §1

Experiment [15] has as its target T6, cellular kinases of SH-SY5Y cells (Homo sapiens, UniProt P51957).
T6 construct: endogenous in cells; host or cells: SH-SY5Y
As to conditions: 2µM; SH-SY5Y cells; Labeling Site Lys2; DLKTQNVFLTR; read-out: KiNativ in-cell binding, % Inhibition, NEK4.
From the text: as §1

Experiment [16] has as its target T7, cellular kinases of SH-SY5Y cells (Homo sapiens, UniProt Q52WX2).
T7 construct: endogenous in cells; host or cells: SH-SY5Y
The settings on record: 2µM; SH-SY5Y cells; Labeling Site Lys2; DIKPENVLLFDR; read-out: KiNativ in-cell binding, % Inhibition, SBK1/SBK.
From the text: as §1

The target in experiment [17] is T8, cellular kinases of SH-SY5Y cells (Homo sapiens, UniProt Q9Y4K4).
T8 construct: endogenous in cells; host or cells: SH-SY5Y
T8 sequence (Q9Y4K4 whole entry): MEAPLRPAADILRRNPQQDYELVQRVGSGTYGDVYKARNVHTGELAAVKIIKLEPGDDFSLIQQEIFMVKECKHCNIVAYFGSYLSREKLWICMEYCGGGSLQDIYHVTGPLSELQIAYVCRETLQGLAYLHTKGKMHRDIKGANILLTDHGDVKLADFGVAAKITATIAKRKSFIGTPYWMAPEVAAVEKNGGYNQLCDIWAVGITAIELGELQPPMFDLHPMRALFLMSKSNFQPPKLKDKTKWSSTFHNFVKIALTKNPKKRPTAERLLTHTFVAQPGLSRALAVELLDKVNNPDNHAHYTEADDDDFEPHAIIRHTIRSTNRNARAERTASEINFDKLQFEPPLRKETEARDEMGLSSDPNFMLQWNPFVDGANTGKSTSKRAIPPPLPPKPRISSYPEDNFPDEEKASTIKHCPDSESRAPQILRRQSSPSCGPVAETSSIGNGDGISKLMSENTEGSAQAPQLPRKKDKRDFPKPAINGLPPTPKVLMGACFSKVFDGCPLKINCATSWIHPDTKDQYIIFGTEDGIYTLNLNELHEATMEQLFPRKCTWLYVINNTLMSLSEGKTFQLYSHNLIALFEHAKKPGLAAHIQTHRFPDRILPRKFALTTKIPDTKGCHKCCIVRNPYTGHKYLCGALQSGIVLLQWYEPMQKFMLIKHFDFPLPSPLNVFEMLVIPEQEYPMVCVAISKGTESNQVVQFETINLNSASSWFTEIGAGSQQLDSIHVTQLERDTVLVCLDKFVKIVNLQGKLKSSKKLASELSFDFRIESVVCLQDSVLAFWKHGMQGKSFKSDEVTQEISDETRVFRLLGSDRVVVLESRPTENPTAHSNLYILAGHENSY
As to conditions: 2µM, SH-SY5Y cells, read-out: KiNativ in-cell binding, % Inhibition, MAP4K5.
From the text: as §1

Each structure is given as a SMILES string. Like-named read-outs stand apart in the source and are kept apart here.

We go through 1 molecule from paper PMC9851200, “Multiparameter phenotypic screening for endogenous TFEB and TFE3 translocation identifies novel chemical series modulating lysosome function” (Autophagy, 2022).

Turning to `Cc1cccc(-c2nc(Nc3ccc4ncsc4c3)c3ccccc3n2)n1` [NK140], the inhibition at 2 µM in experiment [1] was 6%; in experiment [2] it was -11.4%; in experiment [3], 32.4%; in experiment [4] it was 28.7%; in [5], 26%; in experiment [6] (Labeling Site Lys1, DTGHVYAMKILR), -36.9%. Further, the inhibition at 2 µM in [6] (Labeling Site Lys2, DIKPDNLLLDSK) is 20.9%; in experiment [7] (Labeling Site Activation Loop, MCDFGISGYLVDSVAKTIDAGCKPYMAPER), -15.9%; in [7] (Labeling Site Lys1, HVPSGQIMAVKR) it was 15.4%; in experiment [8], -28.2%; in [9], 28.7%; in experiment [10], -43%. Further, the inhibition at 2 µM in [11] was 1.2%; in experiment [12] it was 10.5%; in [13] (Labeling Site Lys1, EVAIKIIDKTQLNPSSLQK), 7.2%; in experiment [13] (Labeling Site Lys2, DLKAENLLLDAEANIK), 11.5%; in experiment [14] it was -1.4%; in experiment [15], -36%. For the same molecule, the inhibition at 2 µM amounted to 3.5% in [16]; 27.4% in experiment [17] (Labeling Site Lys1, NVHTGELAAVKIIK); 26.4% in experiment [17] (Labeling Site Lys2, DIKGANILLTDHGDVK). For the same molecule, the “KiNativ in-cell binding, MAP2K6” value in [7] (labeling site Lys2, peptide DVKPSNVLINALGQVK) was found to be 17.8.
